ChEMBL document CHEMBL1152405, “Bis-anthracenyl isoxazolyl amides have enhanced anticancer activity” (Bioorg Med Chem Lett, 2009)

Test system: SNB-19
Test: Antitumor activity against human SNB19 cells after 24 hrs
Assay type: functional, cell-based
Details: SNB-19, 24 h

Cc1onc(-c2c3ccccc3c(Cl)c3ccccc23)c1C(=O)Nc1cc(C(=O)NCCCN(C)C)n(C)c1
IC50: 6.21 µM
